Measured values reported in the supplement of paper PMC4862054.

These compounds were tested on SK-BR-3 (assay: normalised response (% of control), CellTiter-Glo; higher = more viable cells (100 = DMSO, 0 = benzethonium chloride kill control)). Conditions: incubation time: 72 h.
Summary of the method: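 The table gives the normalised signal for a single concentration in each entry. Breast cancer cell lines were seeded (20 µl suspension) into 384-well plates holding compound at 5 concentrations in 10-fold steps over a compound-specific 10,000-fold range and incubated 72 h, then read for CellTox Green fluorescence (485/520 nm) and CellTiter-Glo luminescence. Normalisation on each plate used 0.1 % DMSO (100) and a positive kill control (0).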
Compound `CO[C@@H]1[C@H](N(C)C(=O)c2ccccc2)C[C@H]2O[C@]1(C)n1c3ccccc3c3c4c(c5c6ccccc6n2c5c31)C(=O)NC4` [Midostaurin] (1 nM) has a normalised response of 102%. Work on `CO[C@@]12[C@H](COC(N)=O)C3=C(C(=O)C(C)=C(N)C3=O)N1C[C@@H]1N[C@@H]12` [Mitomycin C] (1 nM) yielded a normalised response of 100%. Compound `CCNC(=O)c1noc(-c2cc(C(C)C)c(O)cc2O)c1-c1ccc(CN2CCOCC2)cc1` [NVP-AUY922] (0.1 nM) has a normalised response of 108%.

The compounds below were run on BT-474 (assay: normalised viability (% of control), CellTiter-Blue; higher = more viable cells (100 = DMSO, 0 = benzethonium chloride kill control)). Conditions: incubation time: 72 h.
Summary of the method: (§1)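 Each entry is normalised viability at a single listed concentration within a series. It comes from breast cancer cell lines incubated 72 h with compound in 384-well plates, then measured with CellTiter-Blue fluorescence at 560/590 nm. Every plate was normalised between vehicle (100) and a positive kill control (0).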
`CC(=O)[C@]1(O)Cc2c(O)c3c(c(O)c2[C@@H](O[C@H]2C[C@H](N)[C@H](O)[C@H](C)O2)C1)C(=O)c1ccccc1C3=O` [Idarubicin] (0.1 nM) showed a normalised viability of 99.8%. `C/C(=C\c1csc(C)n1)[C@@H]1C[C@@H]2O[C@]2(C)CCC[C@H](C)[C@H](O)[C@@H](C)C(=O)C(C)(C)[C@@H](O)CC(=O)N1` [Ixabepilone] (0.1 nM) was tested, and the normalised viability was 90.4%. `C=CCn1c(=O)c2cnc(Nc3ccc(N4CCN(C)CC4)cc3)nc2n1-c1cccc(C(C)(C)O)n1` [MK1775] (1 nM) showed a normalised viability of 90.5%. In the case of `CO[C@@H]1[C@H](N(C)C(=O)c2ccccc2)C[C@H]2O[C@]1(C)n1c3ccccc3c3c4c(c5c6ccccc6n2c5c31)C(=O)NC4` [Midostaurin] (1 nM), the normalised viability is reported as 99.7%. In the case of `CO[C@@]12[C@H](COC(N)=O)C3=C(C(=O)C(C)=C(N)C3=O)N1C[C@@H]1N[C@@H]12` [Mitomycin C] (1 nM), the normalised viability is reported as 86.7%. In the case of `CCNC(=O)c1noc(-c2cc(C(C)C)c(O)cc2O)c1-c1ccc(CN2CCOCC2)cc1` [NVP-AUY922] (0.1 nM), the normalised viability is reported as 109%.

The compounds below were run on BT-549 in the same assay as above. Conditions: incubation time: 72 h.
Summary of the method: as §1
With `CC(=O)[C@]1(O)Cc2c(O)c3c(c(O)c2[C@@H](O[C@H]2C[C@H](N)[C@H](O)[C@H](C)O2)C1)C(=O)c1ccccc1C3=O` [Idarubicin] (0.1 nM) the normalised viability was 109%. Work on `C/C(=C\c1csc(C)n1)[C@@H]1C[C@@H]2O[C@]2(C)CCC[C@H](C)[C@H](O)[C@@H](C)C(=O)C(C)(C)[C@@H](O)CC(=O)N1` [Ixabepilone] (0.1 nM) yielded a normalised viability of 90.8%. `C=CCn1c(=O)c2cnc(Nc3ccc(N4CCN(C)CC4)cc3)nc2n1-c1cccc(C(C)(C)O)n1` [MK1775] (1 nM) was tested, and the normalised viability was 107%. `CO[C@@H]1[C@H](N(C)C(=O)c2ccccc2)C[C@H]2O[C@]1(C)n1c3ccccc3c3c4c(c5c6ccccc6n2c5c31)C(=O)NC4` [Midostaurin] (1 nM) gave a normalised viability of 104%. `CO[C@@]12[C@H](COC(N)=O)C3=C(C(=O)C(C)=C(N)C3=O)N1C[C@@H]1N[C@@H]12` [Mitomycin C] (1 nM) was tested, and the normalised viability was 87.3%. `CCNC(=O)c1noc(-c2cc(C(C)C)c(O)cc2O)c1-c1ccc(CN2CCOCC2)cc1` [NVP-AUY922] (0.1 nM) was tested, and the normalised viability was 97.2%.

These compounds were tested on CAL-120 in the same assay as above. Conditions: incubation time: 72 h.
Summary of the method: as §1
In the case of `CC(=O)[C@]1(O)Cc2c(O)c3c(c(O)c2[C@@H](O[C@H]2C[C@H](N)[C@H](O)[C@H](C)O2)C1)C(=O)c1ccccc1C3=O` [Idarubicin] (0.1 nM), the normalised viability is reported as 101%. With `C/C(=C\c1csc(C)n1)[C@@H]1C[C@@H]2O[C@]2(C)CCC[C@H](C)[C@H](O)[C@@H](C)C(=O)C(C)(C)[C@@H](O)CC(=O)N1` [Ixabepilone] (0.1 nM) the normalised viability was 78.8%. In the case of `C=CCn1c(=O)c2cnc(Nc3ccc(N4CCN(C)CC4)cc3)nc2n1-c1cccc(C(C)(C)O)n1` [MK1775] (1 nM), the normalised viability is reported as 83.5%. `CO[C@@H]1[C@H](N(C)C(=O)c2ccccc2)C[C@H]2O[C@]1(C)n1c3ccccc3c3c4c(c5c6ccccc6n2c5c31)C(=O)NC4` [Midostaurin] (1 nM) was tested, and the normalised viability was 113%. For `CO[C@@]12[C@H](COC(N)=O)C3=C(C(=O)C(C)=C(N)C3=O)N1C[C@@H]1N[C@@H]12` [Mitomycin C] (1 nM), the normalised viability was 93.9%. `CCNC(=O)c1noc(-c2cc(C(C)C)c(O)cc2O)c1-c1ccc(CN2CCOCC2)cc1` [NVP-AUY922] (0.1 nM) was tested, and the normalised viability was 111%.

Each compound was assayed on CAL-148 in the same assay as above. Conditions: incubation time: 72 h.
Summary of the method: as §1
For `CC(=O)[C@]1(O)Cc2c(O)c3c(c(O)c2[C@@H](O[C@H]2C[C@H](N)[C@H](O)[C@H](C)O2)C1)C(=O)c1ccccc1C3=O` [Idarubicin] (0.1 nM), the normalised viability was 102%. Compound `C/C(=C\c1csc(C)n1)[C@@H]1C[C@@H]2O[C@]2(C)CCC[C@H](C)[C@H](O)[C@@H](C)C(=O)C(C)(C)[C@@H](O)CC(=O)N1` [Ixabepilone] (0.1 nM) has a normalised viability of 105%. In the case of `C=CCn1c(=O)c2cnc(Nc3ccc(N4CCN(C)CC4)cc3)nc2n1-c1cccc(C(C)(C)O)n1` [MK1775] (1 nM), the normalised viability is reported as 99.8%. `CO[C@@H]1[C@H](N(C)C(=O)c2ccccc2)C[C@H]2O[C@]1(C)n1c3ccccc3c3c4c(c5c6ccccc6n2c5c31)C(=O)NC4` [Midostaurin] (1 nM) showed a normalised viability of 119%. For `CO[C@@]12[C@H](COC(N)=O)C3=C(C(=O)C(C)=C(N)C3=O)N1C[C@@H]1N[C@@H]12` [Mitomycin C] (1 nM), the normalised viability was 109%. For `CCNC(=O)c1noc(-c2cc(C(C)C)c(O)cc2O)c1-c1ccc(CN2CCOCC2)cc1` [NVP-AUY922] (0.1 nM), the normalised viability was 104%.

These compounds were tested on CAL-51 in the same assay as above. Conditions: incubation time: 72 h.
Summary of the method: as §1
`CC(=O)[C@]1(O)Cc2c(O)c3c(c(O)c2[C@@H](O[C@H]2C[C@H](N)[C@H](O)[C@H](C)O2)C1)C(=O)c1ccccc1C3=O` [Idarubicin] (0.1 nM) showed a normalised viability of 102%. For `C/C(=C\c1csc(C)n1)[C@@H]1C[C@@H]2O[C@]2(C)CCC[C@H](C)[C@H](O)[C@@H](C)C(=O)C(C)(C)[C@@H](O)CC(=O)N1` [Ixabepilone] (0.1 nM), the normalised viability was 110%. For `C=CCn1c(=O)c2cnc(Nc3ccc(N4CCN(C)CC4)cc3)nc2n1-c1cccc(C(C)(C)O)n1` [MK1775] (1 nM), the normalised viability was 89%. For `CO[C@@H]1[C@H](N(C)C(=O)c2ccccc2)C[C@H]2O[C@]1(C)n1c3ccccc3c3c4c(c5c6ccccc6n2c5c31)C(=O)NC4` [Midostaurin] (1 nM), the normalised viability was 96.4%. With `CO[C@@]12[C@H](COC(N)=O)C3=C(C(=O)C(C)=C(N)C3=O)N1C[C@@H]1N[C@@H]12` [Mitomycin C] (1 nM) the normalised viability was 110%. `CCNC(=O)c1noc(-c2cc(C(C)C)c(O)cc2O)c1-c1ccc(CN2CCOCC2)cc1` [NVP-AUY922] (0.1 nM) was tested, and the normalised viability was 99.5%.

These compounds were tested on CAL-85-1 in the same assay as above. Conditions: incubation time: 72 h.
Summary of the method: as §1
`CC(=O)[C@]1(O)Cc2c(O)c3c(c(O)c2[C@@H](O[C@H]2C[C@H](N)[C@H](O)[C@H](C)O2)C1)C(=O)c1ccccc1C3=O` [Idarubicin] (0.1 nM) showed a normalised viability of 95.7%. In the case of `C/C(=C\c1csc(C)n1)[C@@H]1C[C@@H]2O[C@]2(C)CCC[C@H](C)[C@H](O)[C@@H](C)C(=O)C(C)(C)[C@@H](O)CC(=O)N1` [Ixabepilone] (0.1 nM), the normalised viability is reported as 84%. Compound `C=CCn1c(=O)c2cnc(Nc3ccc(N4CCN(C)CC4)cc3)nc2n1-c1cccc(C(C)(C)O)n1` [MK1775] (1 nM) has a normalised viability of 78.4%. For `CO[C@@H]1[C@H](N(C)C(=O)c2ccccc2)C[C@H]2O[C@]1(C)n1c3ccccc3c3c4c(c5c6ccccc6n2c5c31)C(=O)NC4` [Midostaurin] (1 nM), the normalised viability was 112%. Compound `CO[C@@]12[C@H](COC(N)=O)C3=C(C(=O)C(C)=C(N)C3=O)N1C[C@@H]1N[C@@H]12` [Mitomycin C] (1 nM) has a normalised viability of 96.3%. `CCNC(=O)c1noc(-c2cc(C(C)C)c(O)cc2O)c1-c1ccc(CN2CCOCC2)cc1` [NVP-AUY922] (0.1 nM) showed a normalised viability of 104%.

Each compound was assayed on DU-4475 in the same assay as above. Conditions: incubation time: 72 h.
Summary of the method: as §1
Work on `CC(=O)[C@]1(O)Cc2c(O)c3c(c(O)c2[C@@H](O[C@H]2C[C@H](N)[C@H](O)[C@H](C)O2)C1)C(=O)c1ccccc1C3=O` [Idarubicin] (0.1 nM) yielded a normalised viability of 92.2%. `C/C(=C\c1csc(C)n1)[C@@H]1C[C@@H]2O[C@]2(C)CCC[C@H](C)[C@H](O)[C@@H](C)C(=O)C(C)(C)[C@@H](O)CC(=O)N1` [Ixabepilone] (0.1 nM) gave a normalised viability of 107%. Compound `C=CCn1c(=O)c2cnc(Nc3ccc(N4CCN(C)CC4)cc3)nc2n1-c1cccc(C(C)(C)O)n1` [MK1775] (1 nM) has a normalised viability of 86.6%. `CO[C@@H]1[C@H](N(C)C(=O)c2ccccc2)C[C@H]2O[C@]1(C)n1c3ccccc3c3c4c(c5c6ccccc6n2c5c31)C(=O)NC4` [Midostaurin] (1 nM) was tested, and the normalised viability was 100%. `CO[C@@]12[C@H](COC(N)=O)C3=C(C(=O)C(C)=C(N)C3=O)N1C[C@@H]1N[C@@H]12` [Mitomycin C] (1 nM) gave a normalised viability of 104%. In the case of `CCNC(=O)c1noc(-c2cc(C(C)C)c(O)cc2O)c1-c1ccc(CN2CCOCC2)cc1` [NVP-AUY922] (0.1 nM), the normalised viability is reported as 109%.

These compounds were tested on HCC1143 in the same assay as above. Conditions: incubation time: 72 h.
Summary of the method: as §1
With `CC(=O)[C@]1(O)Cc2c(O)c3c(c(O)c2[C@@H](O[C@H]2C[C@H](N)[C@H](O)[C@H](C)O2)C1)C(=O)c1ccccc1C3=O` [Idarubicin] (0.1 nM) the normalised viability was 103%. Compound `C/C(=C\c1csc(C)n1)[C@@H]1C[C@@H]2O[C@]2(C)CCC[C@H](C)[C@H](O)[C@@H](C)C(=O)C(C)(C)[C@@H](O)CC(=O)N1` [Ixabepilone] (0.1 nM) has a normalised viability of 80.9%. Work on `C=CCn1c(=O)c2cnc(Nc3ccc(N4CCN(C)CC4)cc3)nc2n1-c1cccc(C(C)(C)O)n1` [MK1775] (1 nM) yielded a normalised viability of 104%. For `CO[C@@H]1[C@H](N(C)C(=O)c2ccccc2)C[C@H]2O[C@]1(C)n1c3ccccc3c3c4c(c5c6ccccc6n2c5c31)C(=O)NC4` [Midostaurin] (1 nM), the normalised viability was 129%. In the case of `CO[C@@]12[C@H](COC(N)=O)C3=C(C(=O)C(C)=C(N)C3=O)N1C[C@@H]1N[C@@H]12` [Mitomycin C] (1 nM), the normalised viability is reported as 98.8%. In the case of `CCNC(=O)c1noc(-c2cc(C(C)C)c(O)cc2O)c1-c1ccc(CN2CCOCC2)cc1` [NVP-AUY922] (0.1 nM), the normalised viability is reported as 121%.

What follows are compounds tested on HCC1599 in the same assay as above. Conditions: incubation time: 72 h.
Summary of the method: as §1
Work on `CC(=O)[C@]1(O)Cc2c(O)c3c(c(O)c2[C@@H](O[C@H]2C[C@H](N)[C@H](O)[C@H](C)O2)C1)C(=O)c1ccccc1C3=O` [Idarubicin] (0.1 nM) yielded a normalised viability of 96.6%. With `C/C(=C\c1csc(C)n1)[C@@H]1C[C@@H]2O[C@]2(C)CCC[C@H](C)[C@H](O)[C@@H](C)C(=O)C(C)(C)[C@@H](O)CC(=O)N1` [Ixabepilone] (0.1 nM) the normalised viability was 97.3%. Work on `C=CCn1c(=O)c2cnc(Nc3ccc(N4CCN(C)CC4)cc3)nc2n1-c1cccc(C(C)(C)O)n1` [MK1775] (1 nM) yielded a normalised viability of 103%. `CO[C@@H]1[C@H](N(C)C(=O)c2ccccc2)C[C@H]2O[C@]1(C)n1c3ccccc3c3c4c(c5c6ccccc6n2c5c31)C(=O)NC4` [Midostaurin] (1 nM) showed a normalised viability of 94.2%.
